Like-named read-outs stand apart in the source and are kept apart here.
Legend:
[1] = molecular target: FGFR4-WT (Homo sapiens (Human), UniProt P22455); assay: Omnia assay for potency against FGFR4 enzyme; format: biochemical; details: method a: FGFR4-WT (Invitrogen) 10 nM, ATP 300 uM, Y10-Sox 10 uM
Procedure: A 10× stock solution of FGFR4-WT (PR4380C or P3054), (from Invitrogen, Carlsbad, Calif.) corresponding to method a in Table 10, was prepared as described below. Alternatively, a 10× stock solution of FGFR4-WT (F01-11G), (SignalChem, Richmond, BC) corresponding to method b in Table 10, was prepared as described below. A solution of 1.4×ATP (AS001A) and 5× Tyr-Sox conjugated peptide substrate (KNZ3101) were prepared in 1× kinase reaction buffer consisting of 20 mM Tris, pH 7.5, 5 mM MgCl2, 1 mM EGTA, 5 mM […], 5% glycerol (10× stock, KB002A) and 0.2 mM DTT (DS001A). […] The serially diluted compounds were prepared on a Tecan EVO100. A second addition of 10 μl of Tyr-Sox FGFR4 substrate was added to each well and the kinase reactions were started with the addition of 35 μL of 1.4×ATP. The reactions were monitored every 71 seconds for 240 minutes at λex360/λem485 in a Synergy plate reader from BioTek (Winooski, Vt.). […] Methods:
a) [FGFR4-WT]=10 nM, [ATP]=300 uM, [Y10-Sox]=10 uM (ATP KMapp−300 uM),

[2] = system: MDA-MB-453 cells; assay: Cell proliferation, MDA-MB-453 (CellTiter Glo); format: cell-based; details: 96 hr
Procedure: (§1) The growth inhibition (GI50) values were determined by Graph Pad Prism.

[3] = molecular target: pFGFR4 (Huh7 cells) (Homo sapiens (Human), UniProt P22455); assay: FGFR4 signaling (pFGFR4) in Huh7 cells (MSD); format: cell-based; details: read-out: Signaling EC50 (nM) pFGFR4 (Huh)
[4] = system: Huh7 cells; assay: Cell proliferation, Huh7 (CellTiter Glo); format: cell-based
Procedure: as §1

[5] = 120 hr, read-out: Cell Proliferation GI50 (nM) HUH

pFGFR4 (Huh7 cells), sequence (P22455 22-802): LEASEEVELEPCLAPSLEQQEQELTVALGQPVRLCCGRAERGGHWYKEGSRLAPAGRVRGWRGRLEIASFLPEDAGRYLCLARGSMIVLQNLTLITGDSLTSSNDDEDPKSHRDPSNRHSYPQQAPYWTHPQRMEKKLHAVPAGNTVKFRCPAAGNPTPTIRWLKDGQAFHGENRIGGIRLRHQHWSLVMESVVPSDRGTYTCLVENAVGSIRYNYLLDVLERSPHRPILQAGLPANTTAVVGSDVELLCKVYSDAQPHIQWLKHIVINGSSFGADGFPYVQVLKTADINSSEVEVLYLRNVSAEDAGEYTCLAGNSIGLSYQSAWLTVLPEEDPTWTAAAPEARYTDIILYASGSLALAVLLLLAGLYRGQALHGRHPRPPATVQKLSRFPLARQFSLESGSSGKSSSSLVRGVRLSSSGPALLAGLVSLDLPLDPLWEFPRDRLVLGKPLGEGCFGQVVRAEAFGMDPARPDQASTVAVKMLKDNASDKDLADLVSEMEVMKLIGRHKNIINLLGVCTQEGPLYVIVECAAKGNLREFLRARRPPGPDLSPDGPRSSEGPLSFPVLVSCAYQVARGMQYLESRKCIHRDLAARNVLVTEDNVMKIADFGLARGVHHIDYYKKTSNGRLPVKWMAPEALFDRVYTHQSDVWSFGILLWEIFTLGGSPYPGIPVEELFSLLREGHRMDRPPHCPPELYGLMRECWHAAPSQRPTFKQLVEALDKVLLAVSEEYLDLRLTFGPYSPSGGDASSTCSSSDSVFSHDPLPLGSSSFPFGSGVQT
FGFR4-WT, sequence (P22455 22-802): as above

IC50 [1] [nM]	GI50 ([2]; Homo sapiens) [nM]	EC50 [3] [nM]	GI50 ([4]; Homo sapiens, Huh-7, 120 hr) [nM]	GI50 [4, 5] [nM]	GI50 [2] [nM]	Structure (SMILES)
–	< 100	–	–	–	–	C=CC(=O)N[C@H]1COC[C@H]1Nc1ncc2cc(-c3c(Cl)c(OC)cc(OC)c3Cl)c(=O)n(C)c2n1 [Compound I-241]
< 100	–	< 100	< 100	–	–	C=CC(=O)NC1CN(c2ccn(C)n2)CC1Nc1ncc2cc(-c3c(Cl)c(OC)cc(OC)c3Cl)c(=O)n(C)c2n1 (stereo not shown) [Compound I-248]
< 100	–	< 100	–	–	–	C#CC(=O)N[C@H]1COC[C@H]1Nc1ncc2cc(-c3c(Cl)c(OC)cc(OC)c3Cl)c(=O)n(C)c2n1 [Compound I-251]
< 100	–	< 100	–	–	–	C=CC(=O)NC1CN(c2ccccn2)CC1Nc1ncc2cc(-c3c(Cl)c(OC)cc(OC)c3Cl)c(=O)n(C)c2n1 (stereo not shown) [Compound I-252]
< 100	–	< 100	–	–	–	C=CS(=O)(=O)N[C@H]1CCC[C@H]1Nc1ncc2cc(-c3c(Cl)c(OC)cc(OC)c3Cl)c(=O)n(C)c2n1 [Compound I-253]
–	–	–	–	101 to 500	–	C=CC(=O)N[C@H]1COC[C@H]1Nc1ncc2cc(-c3cc(OC)cc(OC)c3Cl)c(=O)n(C)c2n1 [Compound I-254]
< 100	–	< 100	–	–	–	C=CC(=O)NC1CS(=O)(=O)CC1Nc1ncc2cc(-c3c(Cl)c(OC)cc(OC)c3Cl)c(=O)n(C)c2n1 (stereo not shown) [Compound I-256]
< 100	–	< 100	101 to 500	–	–	C=CC(=O)Nc1cc(F)c(F)cc1Nc1ncc2cc(-c3c(Cl)c(OC)cc(OC)c3Cl)c(=O)n(C)c2n1 [Compound I-257]
< 100	–	< 100	–	–	–	C=CC(=O)Nc1ccc(C(F)(F)F)cc1Nc1ncc2cc(-c3c(Cl)c(OC)cc(OC)c3Cl)c(=O)n(C)c2n1 [Compound I-258]
< 100	–	< 100	101 to 500	–	–	C=CC(=O)Nc1cccc(F)c1Nc1ncc2cc(-c3c(Cl)c(OC)cc(OC)c3Cl)c(=O)n(C)c2n1 [Compound I-259]
< 100	–	< 100	–	–	–	C=CC(=O)Nc1cc(-c2cnn(C)c2)ccc1Nc1ncc2cc(-c3c(Cl)c(OC)cc(OC)c3Cl)c(=O)n(C)c2n1 [Compound I-264]
< 100	–	< 100	–	–	–	C=CC(=O)N[C@H]1COC[C@H]1Nc1ncc2cc(-c3cc(C(=O)Nc4cccc(C(C)(C)C)c4)ccc3Cl)c(=O)n(C)c2n1 [Compound I-265]
< 100	–	< 100	–	–	–	C=CC(=O)Nc1cc(-c2ccn(C)n2)ccc1Nc1ncc2cc(-c3c(Cl)c(OC)cc(OC)c3Cl)c(=O)n(C)c2n1 [Compound I-267]
< 100	< 100	< 100	101 to 500	–	–	C=CC(=O)Nc1cc(N2CCN(CC)CC2)ccc1Nc1ncc2cc(-c3c(Cl)c(OC)cc(OC)c3Cl)c(=O)n(C)c2n1 [Compound I-269]
< 100	–	< 100	–	–	–	C=CC(=O)N[C@H]1COC[C@H]1Nc1ncc2cc(-c3cc(OC)cc(OC)c3F)c(=O)n(C)c2n1 [Compound I-274]
< 100	< 100	< 100	101 to 500	–	–	C=CC(=O)Nc1cc(-c2nnnn2C)ccc1Nc1ncc2cc(-c3c(Cl)c(OC)cc(OC)c3Cl)c(=O)n(C)c2n1 [Compound I-276]
< 100	–	< 100	–	–	–	C=CC(=O)Nc1nc(C)ccc1Nc1ncc2cc(-c3c(Cl)c(OC)cc(OC)c3Cl)c(=O)n(C)c2n1 [Compound I-278]
–	< 100	–	< 100	–	–	C=CC(=O)N[C@H]1COC[C@H]1Nc1ncc2cc(-c3c(F)c(OC)cc(OC)c3Cl)c(=O)n(C)c2n1 [Compound I-279]
–	101 to 500	–	< 100	–	–	C=CC(=O)N[C@H]1COC[C@H]1Nc1ncc2cc(-c3c(F)c(OC)cc(OC)c3F)c(=O)n(C)c2n1 [Compound I-281]
< 100	–	101 to 500	–	–	–	C=CC(=O)Nc1c(Nc2ncc3cc(-c4c(Cl)c(OC)cc(OC)c4Cl)c(=O)n(C)c3n2)ccc(F)c1F [Compound I-282]
< 100	–	101 to 500	–	–	–	C=CC(=O)NC1CC(O)CC1Nc1ncc2cc(-c3c(Cl)c(OC)cc(OC)c3Cl)c(=O)n(C)c2n1 (stereo not shown) [Compound I-284]

IC50 [1] [nM]	GI50 ([2]; Homo sapiens) [nM]	EC50 [3] [nM]	GI50 ([4]; Homo sapiens, Huh-7, 120 hr) [nM]	GI50 [4, 5] [nM]	GI50 [2] [nM]	Structure (SMILES)
< 100	–	< 100	–	< 100	< 100	C=CC(=O)Nc1ccc(F)c(F)c1Nc1ncc2cc(-c3c(Cl)c(OC)cc(OC)c3Cl)c(=O)n(C)c2n1 [Compound I-285]
< 100	–	< 100	–	–	–	C=CC(=O)NC1CC(=O)CC1Nc1ncc2cc(-c3c(Cl)c(OC)cc(OC)c3Cl)c(=O)n(C)c2n1 (stereo not shown) [Compound I-286]
< 100	–	< 100	–	–	–	C=CC(=O)NC1CC(F)(F)CC1Nc1ncc2cc(-c3c(Cl)c(OC)cc(OC)c3Cl)c(=O)n(C)c2n1 (stereo not shown) [Compound I-288]
< 100	–	< 100	–	501 to 999	< 100	C=CC(=O)Nc1ccccc1Nc1ncc2cc(-c3c(Cl)c(OC)cc(OC(F)F)c3Cl)c(=O)n(C)c2n1 [Compound I-289]
< 100	–	< 100	< 100	–	–	C=CC(=O)N[C@H]1COC[C@H]1Nc1ncc2cc(-c3c(Cl)c(OC)cc(OC)c3Cl)c(=O)[nH]c2n1 [Compound I-290]
< 100	–	< 100	–	< 100	–	C=CC(=O)N[C@H]1COC[C@H]1Nc1ncc2cc(-c3c(Cl)c(OC)cc(OCC)c3Cl)c(=O)n(C)c2n1 [Compound I-291]
< 100	–	< 100	< 100	–	–	C=CC(=O)N[C@H]1CN(c2cc[nH]n2)C[C@H]1Nc1ncc2cc(-c3c(Cl)c(OC)cc(OC)c3Cl)c(=O)n(C)c2n1 [Compound I-292]
101 to 500	–	101 to 500	–	–	–	C=CC(=O)N[C@@H]1CN(c2cc[nH]n2)C[C@@H]1Nc1ncc2cc(-c3c(Cl)c(OC)cc(OC)c3Cl)c(=O)n(C)c2n1 [Compound I-293]
–	–	–	101 to 500	–	–	C=CC(=O)N[C@H]1COC[C@H]1Nc1ncc2cc(-c3c(C)c(OC)cc(OC)c3C)c(=O)n(C)c2n1 [Compound I-294]
< 100	–	< 100	–	< 100	–	C=CC(=O)N[C@H]1COC[C@H]1Nc1ncc2cc(-c3c(Cl)c(OC)cc(OC)c3Cl)c(=O)n(CCOC)c2n1 [Compound I-295]
< 100	–	< 100	–	–	–	C=CC(=O)N[C@H]1COC[C@H]1Nc1ncc2cc(-c3c(Cl)c(OC)cc(OC)c3Cl)c(=O)n(C(C)C)c2n1 [Compound I-296]
< 100	–	< 100	–	< 100	–	C=CC(=O)N[C@H]1COC[C@H]1Nc1ncc2cc(-c3c(Cl)c(OC)cc(OC)c3Cl)c(=O)nc-2n1CC1CCOC1 (stereo partly shown) [Compound I-298]
< 100	–	< 100	–	101 to 500	–	C=CC(=O)N[C@H]1COC[C@H]1Nc1ncc2cc(-c3c(Cl)c(OC)cc(OC)c3Cl)c(=O)nc-2n1C[C@H]1CCN(C(C)=O)C1 [Compound I-299]
< 100	–	< 100	–	–	–	C=CC(=O)N[C@H]1COC[C@H]1Nc1ncc2cc(-c3c(Cl)c(OC)cc(OC)c3Cl)c(=O)nc-2n1C1CCOCC1 [Compound I-300]
< 100	–	< 100	–	< 100	–	C=CC(=O)N[C@H]1COC[C@H]1Nc1ncc2cc(-c3cc(OC)cc(OC)c3Cl)c(=O)nc-2n1C[C@H]1CCN(C(C)=O)C1 [Compound I-301]
< 100	–	< 100	–	101 to 500	–	C=CC(=O)N[C@H]1COC[C@H]1Nc1ncc2cc(-c3c(Cl)c(OC)cc(OC)c3Cl)c(=O)nc-2n1CCO [Compound I-303]
< 100	–	< 100	–	–	–	C=CC(=O)N[C@H]1COC[C@H]1Nc1ncc2cc(-c3c(Cl)c(OC)cc(OC)c3Cl)c(=O)nc-2n1CCF [Compound I-304]
< 100	–	< 100	–	–	–	C=CC(=O)N[C@H]1COC[C@H]1Nc1ncc2cc(-c3cc(OC)cc(OC)c3Cl)c(=O)nc-2n1C [Compound I-306]
< 100	–	< 100	101 to 500	–	–	C=CC(=O)N[C@H]1COC[C@H]1Nc1ncc2cc(-c3c(Cl)c(OC)cc(OC)c3Cl)c(=O)n(C[C@@H]3CCN(C(C)=O)C3)c2n1 [Compound I-307]
< 100	–	< 100	–	101 to 500	–	C=CC(=O)N[C@H]1COC[C@H]1Nc1ncc2cc(-c3cc(OC)cc(OC)c3Cl)c(=O)n(CC3CCN(C(C)=O)C3)c2n1 (stereo partly shown) [Compound I-308]

Structure (SMILES)	IC50 [1] [nM]	GI50 ([2]; Homo sapiens) [nM]	EC50 [3] [nM]	GI50 ([4]; Homo sapiens, Huh-7, 120 hr) [nM]	GI50 [4, 5] [nM]	GI50 [2] [nM]
C=CC(=O)NC1CCCCC1Nc1ncc2c(n1)N(CCF)C(=O)N(c1c(Cl)c(OC)cc(OC)c1Cl)C2 (racemic) [Compound I-106]	101 to 500	–	–	–	–	–
C=CC(=O)NC1CN(C)CC1Nc1ncc2c(n1)N(C)C(=O)N(c1c(Cl)c(OC)cc(OC)c1Cl)C2 (racemic) [Compound I-138]	101 to 500	–	–	–	–	–
C=CC(=O)NC1CN(C(C)=O)CC1Nc1ncc2c(n1)N(C)C(=O)N(c1c(Cl)c(OC)cc(OC)c1Cl)C2 (racemic) [Compound I-139]	< 100	–	–	–	–	–

Reference: patent US10618902B2, “Substituted pyrido[2,3-d]pyrimidines as inhibitors of protein kinases” (Celgene CAR LLC, priority 2013, dated 2020)
